# Results published in ChEMBL document CHEMBL5030532, “Synthesis and Evaluation of Galloyl Conjugates of Flavanones as BMP-2 Upregulators with Promising Bone Anabolic and Fracture Healing Properties” (J Med Chem, 2021).
# Active and inactive are the calls of the source. No cut-off for these calls is given here.
# Experiments:
# Calvarial osteoblast [1] = experiment: Induction of osteoblast differentiation in rat Calvaria osteoblast cells measured assessed as increase in alkaline phosphatase activity at 1 pM incubated for 48 hrs using PNPP as substrate; type: functional, cell-based
# Calvarial osteoblast [2] = experiment: Induction of osteoblast differentiation in rat Calvaria osteoblast cells measured assessed as increase in alkaline phosphatase activity at 10 pM incubated for 48 hrs using PNPP as substrate; type: functional, cell-based
# [3] = Induction of osteogeneis in rat calvarial osteoblast cells assessed as fold upregulation of RUNX2 gene expression at 1 pM measured after 48 hrs by qPCR analysis relative to control; type: functional
# [4] = Induction of osteogeneis in rat calvarial osteoblast cells assessed as fold upregulation of ALP gene expression at 100 pM measured after 48 hrs by qPCR analysis relative to control; type: functional
# Calvarial osteoblast [5] = experiment: Induction of mineralization in rat Calvarial osteoblast cells measured at 100 pM measured for 14 days by Cetylpyridinium chloride method; type: functional, tissue-based; settings: time 14.0 day
# Calvarial osteoblast [6] = experiment: Induction of osteoblast differentiation in rat Calvaria osteoblast cells measured assessed as maximal increase in alkaline phosphatase activity incubated for 48 hrs using PNPP as substrate; type: functional
# [7] = Induction of osteogeneis in rat calvarial osteoblast cells assessed as fold upregulation of Col1 gene expression at 100 pM measured after 48 hrs by qPCR analysis relative to control; type: functional
# [8] = Induction of osteogeneis in rat calvarial osteoblast cells assessed as fold upregulation of BMP-2 gene expression at 100 pM measured after 48 hrs by qPCR analysis relative to control; type: functional
# Calvarial osteoblast [9] = experiment: Cytotoxicity against rat Calvarial osteoblast cells assessed as viable cells measured at 0.000001 to 1 uM measure after 48 hrs by cell viability assay; type: cell-based; settings: dose lower 1e-06 µM, dose upper 1 µM
# [10] = Induction of osteogeneis in rat calvarial osteoblast cells assessed as fold upregulation of Col1 gene expression at 10 nM measured after 48 hrs by qPCR analysis relative to control; type: functional
# Calvarial osteoblast [11] = experiment: Induction of mineralization in rat Calvarial osteoblast cells measured at 10 nM measured for 14 days by Cetylpyridinium chloride method; type: functional, tissue-based; settings: time 14.0 day
# Calvarial osteoblast [12] = experiment: Induction of rat Calvarial osteoblast cell proliferation at 0.000001 to 1 uM measured after 48 hrs by MTT assay; type: functional, tissue-based; settings: dose lower 1e-06 µM, dose upper 1.0 µM
# [13] = Induction of osteogeneis in rat calvarial osteoblast cells assessed as fold upregulation of RUNX2 gene expression at 10 nM measured after 48 hrs by qPCR analysis relative to control; type: functional
# Calvarial osteoblast [14] = experiment: Induction of osteogenesis in rat calvarial osteoblast cells assessed as fold upregulation of BMP-2 gene expression at 10 nM measured after 48 hrs by qPCR analysis relative to control; type: functional
# Calvarial osteoblast [15] = experiment: Induction of osteoblast differentiation in rat Calvaria osteoblast cells measured assessed as increase in alkaline phosphatase activity at 0.000001 to 1 uM incubated for 48 hrs using PNPP as substrate; type: functional, cell-based; settings: dose lower 1e-06 µM, dose upper 1.0 µM
Structure (SMILES),Activity (Calvarial osteoblast [1]),Activity (Calvarial osteoblast [2]),fold change (FC) [4],ECmax (Calvarial osteoblast [6]),Activity (Calvarial osteoblast [9]),other results
COc1cccc(C2CC(=O)c3cc([N+](=O)[O-])ccc3O2)c1 (stereo not given),Active,Active,,,,
O=C(O)c1cc(O)c(O)c(O)c1,Active,Active,,,,
COc1cc(C(=O)Nc2ccc3c(c2)C(=O)CC(c2ccccc2)O3)cc(OC)c1OC (stereo not given),,,1.3,10 pM,Non-Toxic,fold change (FC) [3]: 2; Activity (Calvarial osteoblast [5]): Active; fold change (FC) [7]: 1.8; fold change (FC) [8]: 1.9
COc1cc(C(=O)Nc2ccc3c(c2)C(O)CC(c2cccc(C)c2)O3)cc(OC)c1OC (stereo not given),,,2.3,100 pM,Non-Toxic,fold change (FC) [10]: 1.55; Activity (Calvarial osteoblast [11]): Active; Activity (Calvarial osteoblast [12]): Active; fold change (FC) [13]: 1.8; fold change (FC) (Calvarial osteoblast [14]): 1.83
COc1cccc([C@@H]2CC(=O)c3cc(NC(=O)c4cc(OC)c(OC)c(OC)c4)ccc3O2)c1,,,,,,Activity (Calvarial osteoblast [15]): Active
